Results: patent publication US5696151A, “Compounds useful for the inhibition of the replication of HIV-1 and HIV-1 mutants” (priority 1995, dated 1997)
≈ marks a conversion by molar mass, not a printed value.

Key:
Assay type in all cases: cell-based
HIV-1(IIIB) = experiment: Inhibition of HIV-1 induced syncytium formation in CEM cells, wild type; settings: Table 2B, WT = HIV-1(IIIB), day 4, averages of 2 to 3 independent experiments; for EC50: Human immunodeficiency virus 1, IIIB, CCRF-CEM, 96 h, read-out: Antiviral Activity of Comparative Compounds EC50, WT
Procedure, shortened: (§1)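 Mutant strains were selected in culture for resistance to NNRTIs such as TSAO-m^3T, pyridinone L-697,661 or HEPT. Antiviral effect is inhibition of syncytium formation in infected CEM cells (~100 CCID50), assessed microscopically at day 4.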

HIV-1/100-Ile = experiment: Inhibition of HIV-1 induced syncytium formation in CEM cells, RT mutant 100-Ile; settings: Table 2B, day 4, averages of 2 to 3 independent experiments; for EC50: Human immunodeficiency virus 1, CCRF-CEM, 96 h, read-out: Antiviral Activity of Comparative Compounds EC50, 100-Ile
Procedure, shortened: as §1

HIV-1/103-Asn = experiment: Inhibition of HIV-1 induced syncytium formation in CEM cells, RT mutant 103-Asn; settings: Human immunodeficiency virus 1, CCRF-CEM, 96 h, Table 2B, day 4, averages of 2 to 3 independent experiments, read-out: Antiviral Activity of Comparative Compounds EC50, 103-Asn
Text: (§2) CEM cells were obtained from the American Tissue Cell Culture Collection (Rockville, Md.). HIV-1(IIIB) was originally obtained from the culture supernatant of persistently HIV-1-infected H9 cells and was provided by R. C. Gallo and M. Popovic (National Cancer Institute, National Institutes of Health, Bethesda, Md.). […] 67: 5353-5359 (1993); HIV-1/Lys-138 ("Lys-138") was selected for resistance against TSAO-m^3T as described in Balzarini et al, Virology 192: 246-253 (1993) and Balzarini et al, Proc. Nat. Acad. Sci. USA 90: 6952-6956 (1993); HIV-1/181-Cys ("181-Cys") was selected for resistance against pyridinone L-697,661 as described in Balzarini et al, Virology 192: 246-253 (1993); and HIV-1/188-His ("188-His") was selected for resistance against HEPT as described in Balzarini et al, Mol. Pharmocol. 44: 694-701 (1993). 188-His was then further converted to HIV-1/188-Leu "188-Leu") upon further passage in cell culture in the absence of the HEPT.
(§3) CEM cells were suspended at ≈300,000 cells per ml of culture medium and infected with approximately 100 CCID50 (CCID50 being the 50% cell culture infective dose) of HIV-1(IIIB) or one of the HIV-1 RT mutant strains described above. Then 100 μl of the infected cell suspensions was added to 200 μl microtiter plate wells containing 100 μl of appropriate serial (5-fold) dilutions of the test compounds. The inhibitory effect of the test compounds on HIV-1 induced syncytium formation in CEM cells was examined microscopically on day 4 post infection.

HIV-1/106-Ala = experiment: Inhibition of HIV-1 induced syncytium formation in CEM cells, RT mutant 106-Ala; settings: Table 2B, day 4, averages of 2 to 3 independent experiments; for EC50: Human immunodeficiency virus 1, CCRF-CEM, 96 h, read-out: Antiviral Activity of Comparative Compounds EC50, 106-Ala
Procedure, shortened: as §1

HIV-1/Lys-138 = experiment: Inhibition of HIV-1 induced syncytium formation in CEM cells, RT mutant 138-Lys; settings: Table 2B, day 4, averages of 2 to 3 independent experiments; for EC50: Human immunodeficiency virus 1, CCRF-CEM, 96 h, read-out: Antiviral Activity of Comparative Compounds EC50, 138-Lys
Procedure, shortened: as §1

HIV-1/181-Cys = experiment: Inhibition of HIV-1 induced syncytium formation in CEM cells, RT mutant 181-Cys; settings: Table 2B, day 4, averages of 2 to 3 independent experiments; for EC50: Human immunodeficiency virus 1, CCRF-CEM, 96 h, read-out: Antiviral Activity of Comparative Compounds EC50, 181-Cys
Procedure, shortened: as §1

HIV-1/188-Leu = experiment: Inhibition of HIV-1 induced syncytium formation in CEM cells, RT mutant 188-Leu; settings: Human immunodeficiency virus 1, CCRF-CEM, 96 h, Table 2B, day 4, averages of 2 to 3 independent experiments, read-out: Antiviral Activity of Comparative Compounds EC50, 188-Leu
Text: as §2, §3

in vitro = settings: human, cem cells, CC50 (50% cytostatic concentration), Table 2B; CEM cell proliferation; averages of 2 to 3 independent experiments
Procedure, shortened: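 In CEM cells, the cytostatic value is the compound concentration giving 50% inhibition of cell proliferation. Parallel work used HIV-1(IIIB) and culture-selected resistant strains Lys-138, 181-Cys, 188-His and 188-Leu.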

SMILES | EC50 (HIV-1(IIIB)) | EC50 (HIV-1/100-Ile) | EC50 (HIV-1/103-Asn) | EC50 (HIV-1/106-Ala) | EC50 (HIV-1/Lys-138) | EC50 (HIV-1/181-Cys) | EC50 (HIV-1/188-Leu) | CC50 (in vitro) | Antiviral Activity of Comparative Compounds EC50, WT (HIV-1(IIIB)) | Antiviral Activity of Comparative Compounds EC50, 100-Ile (HIV-1/100-Ile) | Antiviral Activity of Comparative Compounds EC50, 106-Ala (HIV-1/106-Ala) | Antiviral Activity of Comparative Compounds EC50, 138-Lys (HIV-1/Lys-138) | Antiviral Activity of Comparative Compounds EC50, 181-Cys (HIV-1/181-Cys)
Cc1sccc1C(=S)Nc1ccc(Cl)c(C(=O)OC(C)C)c1 [Compound 16] | 0.0041 µg/mL (≈ 0.0116 µM) | 0.15 µg/mL (≈ 0.424 µM) | 0.33 µg/mL (≈ 0.932 µM) | 0.077 µg/mL (≈ 0.218 µM) | 0.03 µg/mL (≈ 0.0848 µM) | 0.1 µg/mL (≈ 0.283 µM) | > 2 µg/mL | 5.9 µg/mL (≈ 16.7 µM) | – | – | – | – | –
Cc1occc1C(=S)Nc1ccc(Cl)c(SCC(=O)OC(C)(C)C)c1 [Compound 17] | 0.22 µg/mL (≈ 0.553 µM) | 0.49 µg/mL (≈ 1.23 µM) | 0.73 µg/mL (≈ 1.83 µM) | 0.3 µg/mL (≈ 0.754 µM) | 0.18 µg/mL (≈ 0.452 µM) | 0.45 µg/mL (≈ 1.13 µM) | ≥ 2 µg/mL | 7 µg/mL (≈ 17.6 µM) | – | – | – | – | –
CC1=C(C(=O)Nc2ccc(Cl)c(C=NOC(C)(C)C)c2)SCCO1 [Compound 18] | 0.014 µg/mL (≈ 0.038 µM) | 0.33 µg/mL (≈ 0.895 µM) | 0.33 µg/mL (≈ 0.895 µM) | 0.15 µg/mL (≈ 0.407 µM) | 0.22 µg/mL (≈ 0.596 µM) | 0.13 µg/mL (≈ 0.352 µM) | > 2 µg/mL | 8.5 µg/mL (≈ 23 µM) | – | – | – | – | –
CC=CCOc1cc(NC(=S)c2ccn(C)c2C)ccc1Cl [Compound 19] | 0.17 µg/mL (≈ 0.508 µM) | 0.85 µg/mL (≈ 2.54 µM) | ≥ 2 µg/mL | 0.4 µg/mL (≈ 1.19 µM) | 0.6 µg/mL (≈ 1.79 µM) | 0.13 µg/mL (≈ 0.388 µM) | > 2 µg/mL | 5.2 µg/mL (≈ 15.5 µM) | – | – | – | – | –
Cc1sccc1C(=S)Nc1ccc(Cl)c(SCC(=O)OC(C)(C)C)c1 [Compound 20] | 0.13 µg/mL (≈ 0.314 µM) | 0.34 µg/mL (≈ 0.821 µM) | 0.44 µg/mL (≈ 1.06 µM) | 0.15 µg/mL (≈ 0.362 µM) | 0.43 µg/mL (≈ 1.04 µM) | 0.14 µg/mL (≈ 0.338 µM) | > 2 µg/mL | 5.4 µg/mL (≈ 13 µM) | – | – | – | – | –
Cc1sccc1C(=S)Nc1ccc(Cl)c(C(=O)OC(C(C)C)C(C)C)c1 [Compound 21] | 0.008 µg/mL (≈ 0.0195 µM) | 0.3 µg/mL (≈ 0.732 µM) | 0.61 µg/mL (≈ 1.49 µM) | 0.23 µg/mL (≈ 0.561 µM) | 0.11 µg/mL (≈ 0.268 µM) | 0.17 µg/mL (≈ 0.415 µM) | > 2 µg/mL | 6 µg/mL (≈ 14.6 µM) | – | – | – | – | –
CC1=C(C(=O)Nc2ccc(Cl)c(C(=O)OC(C(C)C)C(C)C)c2)SCCO1 [Compound 22] | 0.08 µg/mL (≈ 0.194 µM) | 0.48 µg/mL (≈ 1.17 µM) | 0.65 µg/mL (≈ 1.58 µM) | 0.26 µg/mL (≈ 0.631 µM) | 0.55 µg/mL (≈ 1.34 µM) | 0.18 µg/mL (≈ 0.437 µM) | > 2 µg/mL | 5.8 µg/mL (≈ 14.1 µM) | – | – | – | – | –
Cc1sccc1C(=O)Nc1ccc(Cl)c(C(=O)OC2CCCCC2)c1 [Compound 23] | – | – | ≥ 2 µg/mL | – | – | – | > 2 µg/mL | 5.8 µg/mL (≈ 15.3 µM) | 0.03 µg/mL | 0.7 µg/mL | 0.22 µg/mL | 0.73 µg/mL | 0.27 µg/mL
CC1=C(C(=O)Nc2ccc(Cl)c(C=NOC(C)(C)C)c2)CCCO1 [Compound 24] | 0.13 µg/mL (≈ 0.371 µM) | 0.48 µg/mL (≈ 1.37 µM) | 0.6 µg/mL (≈ 1.71 µM) | 0.5 µg/mL (≈ 1.43 µM) | 0.5 µg/mL (≈ 1.43 µM) | 0.33 µg/mL (≈ 0.941 µM) | > 2 µg/mL | 9.7 µg/mL (≈ 27.6 µM) | – | – | – | – | –
C=C(Cl)COc1cc(NC(=S)c2ccsc2C)ccc1C#N [Compound 25] | 0.03 µg/mL (≈ 0.086 µM) | 0.2 µg/mL (≈ 0.573 µM) | 0.4 µg/mL (≈ 1.15 µM) | 0.2 µg/mL (≈ 0.573 µM) | 0.13 µg/mL (≈ 0.373 µM) | 0.44 µg/mL (≈ 1.26 µM) | > 2 µg/mL | 3.3 µg/mL (≈ 9.46 µM) | – | – | – | – | –
Cc1occc1C(=S)Nc1ccc(Cl)c(OC2CCCCC2)c1 [Compound 26] | 0.033 µg/mL (≈ 0.0943 µM) | 0.33 µg/mL (≈ 0.943 µM) | 0.33 µg/mL (≈ 0.943 µM) | 0.09 µg/mL (≈ 0.257 µM) | 0.5 µg/mL (≈ 1.43 µM) | ≥ 2 µg/mL | > 2 µg/mL | 5.3 µg/mL (≈ 15.1 µM) | – | – | – | – | –
CC(C)=CCOc1cc(NC(=O)c2ccsc2C)ccc1Cl [Compound 27] | 0.01 µg/mL (≈ 0.0298 µM) | 0.36 µg/mL (≈ 1.07 µM) | 0.5 µg/mL (≈ 1.49 µM) | 0.11 µg/mL (≈ 0.328 µM) | 0.15 µg/mL (≈ 0.447 µM) | 0.46 µg/mL (≈ 1.37 µM) | > 2 µg/mL | 6 µg/mL (≈ 17.9 µM) | – | – | – | – | –
